According to PubChem BioAssay AID1963828 (Molecular Pharmacology Branch, DTP, NCI, 2024):

System: 991263-137-R1-J2-PDC complex spheroid viability
Assay: Anticancer human tumor 991263-137-R1-J2-PDC patient-derived colon adenocarcinoma cell line growth inhibition [POLQ]
Conditions: for IC50: curve of first compound; for viability, T/C: stronger effect = lower value
How it was run: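 Patient-derived tumour cells were co-cultured with HUVEC and mesenchymal stem cells as multicellular spheroids at 37 °C. They were treated with POLQ inhibitors (novobiocin, ART-558, RP6685) alone or combined with other agents. Top concentrations were at or near clinical Cmax (otherwise 10 microM; SN-38 at 1 microM), decreasing in half-log steps.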

[1] = second compound 0.0316 µM, first compound 0.0316 µM
[2] = second compound 0.0316 µM, first compound 0.1 µM
[3] = second compound 0.0316 µM, first compound 0.316 µM
[4] = second compound 0.0316 µM, first compound 1 µM
[5] = second compound 0.0316 µM, first compound 3.16 µM
[6] = second compound 0.0316 µM, first compound 10 µM
[7] = second compound 0.1 µM, first compound 0.0316 µM
[8] = second compound 0.1 µM, first compound 0.1 µM
[9] = second compound 0.1 µM, first compound 0.316 µM
[10] = second compound 0.1 µM, first compound 1 µM
[11] = second compound 0.1 µM, first compound 3.16 µM
[12] = second compound 0.1 µM, first compound 10 µM
[13] = second compound 0.316 µM, first compound 0.0316 µM
[14] = second compound 0.316 µM, first compound 0.1 µM
[15] = second compound 0.316 µM, first compound 0.316 µM
[16] = second compound 0.316 µM, first compound 1 µM
[17] = second compound 0.316 µM, first compound 3.16 µM
[18] = second compound 0.316 µM, first compound 10 µM
[19] = second compound 1 µM, first compound 0.0316 µM
[20] = second compound 1 µM, first compound 0.1 µM
[21] = second compound 1 µM, first compound 0.316 µM
[22] = second compound 1 µM, first compound 1 µM
[23] = second compound 1 µM, first compound 3.16 µM
[24] = second compound 1 µM, first compound 10 µM
[25] = second compound 3.16 µM, first compound 0.0316 µM
[26] = second compound 3.16 µM, first compound 0.1 µM
[27] = second compound 3.16 µM, first compound 0.316 µM
[28] = second compound 3.16 µM, first compound 1 µM
[29] = second compound 3.16 µM, first compound 3.16 µM
[30] = second compound 3.16 µM, first compound 10 µM
[31] = second compound 10 µM, first compound 0.0316 µM
[32] = second compound 10 µM, first compound 0.1 µM
[33] = second compound 10 µM, first compound 0.316 µM
[34] = second compound 10 µM, first compound 1 µM
[35] = second compound 10 µM, first compound 3.16 µM
[36] = second compound 10 µM, first compound 10 µM
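Further: spheroids exposed to compounds for 7 days before readout.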
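Wherever viability, T/C is given: 100% = DMSO vehicle control viability.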

In the case of `C#Cc1c(F)ccc2cc(O)cc(-c3ncc4c(N5CC6CCC(C5)N6)nc(OCC56CCCN5CC(F)C6)nc4c3F)c12` (centres undefined) + COC1C(OC(N)=O)C(O)C(Oc2ccc3c(O)c(NC(=O)c4ccc(O)c(CC=C(C)C)c4)c(=O)oc3c2C)OC1(C)C, the IC50 (second compound 0.0316 µM) is reported as > 10 µM, the IC50 (second compound 0.1 µM) is reported as > 10 µM and the IC50 (second compound 0.316 µM) is reported as > 10 µM. For the same compound, the IC50 (second compound 1 µM) was > 10 µM, the IC50 (second compound 3.16 µM) was > 10 µM and the IC50 (second compound 10 µM) was > 10 µM. The viability, T/C [1] was 103%, the viability, T/C [2] was 107% and the viability, T/C [3] was 105%. For the same compound, the viability, T/C [4] was 109%, the viability, T/C [5] was 108% and the viability, T/C [6] was 95.1%. It also gave a viability, T/C [7] of 103%, a viability, T/C [8] of 106% and a viability, T/C [9] of 99.4%. It also gave a viability, T/C [10] of 88.2%, a viability, T/C [11] of 116% and a viability, T/C [12] of 104%. It also gave a viability, T/C [13] of 98.9%, a viability, T/C [14] of 120% and a viability, T/C [15] of 118%. It also gave a viability, T/C [16] of 91.5%, a viability, T/C [17] of 114% and a viability, T/C [18] of 92.7%. The viability, T/C [19] was 95.4%, the viability, T/C [20] was 113% and the viability, T/C [21] was 112%. For the same compound, the viability, T/C [22] was 107%, the viability, T/C [23] was 117% and the viability, T/C [24] was 90.6%. For the same compound, the viability, T/C [25] was 104%, the viability, T/C [26] was 123% and the viability, T/C [27] was 122%. It also gave a viability, T/C [28] of 121%, a viability, T/C [29] of 109% and a viability, T/C [30] of 104%. For the same compound, the viability, T/C [31] was 102%, the viability, T/C [32] was 102% and the viability, T/C [33] was 102%. For the same compound, the viability, T/C [34] was 110%, the viability, T/C [35] was 102% and the viability, T/C [36] was 91.6%.

`CC(C)n1c(=O)n(C)c2cnc3cc(F)c(-c4ccc(OCCCN5CCCCC5)nc4)cc3c21` + COC1C(OC(N)=O)C(O)C(Oc2ccc3c(O)c(NC(=O)c4ccc(O)c(CC=C(C)C)c4)c(=O)oc3c2C)OC1(C)C was tested, and the IC50 (second compound 0.0316 µM) was > 10 µM, the IC50 (second compound 0.1 µM) was > 10 µM and the IC50 (second compound 0.316 µM) was > 10 µM. For the same compound, the IC50 (second compound 1 µM) was > 10 µM, the IC50 (second compound 3.16 µM) was > 10 µM and the IC50 (second compound 10 µM) was > 10 µM. The viability, T/C [1] was 107%, the viability, T/C [2] was 109% and the viability, T/C [3] was 118%. For the same compound, the viability, T/C [4] was 101%, the viability, T/C [5] was 103% and the viability, T/C [6] was 82.7%. It also gave a viability, T/C [7] of 91.5%, a viability, T/C [8] of 106% and a viability, T/C [9] of 116%. It also gave a viability, T/C [10] of 99%, a viability, T/C [11] of 102% and a viability, T/C [12] of 82.1%. For the same compound, the viability, T/C [13] was 86.3%, the viability, T/C [14] was 114% and the viability, T/C [15] was 117%. For the same compound, the viability, T/C [16] was 96.9%, the viability, T/C [17] was 106% and the viability, T/C [18] was 96.2%. It also gave a viability, T/C [19] of 109%, a viability, T/C [20] of 106% and a viability, T/C [21] of 112%. It also gave a viability, T/C [22] of 83.5%, a viability, T/C [23] of 109% and a viability, T/C [24] of 90%. It also gave a viability, T/C [25] of 111%, a viability, T/C [26] of 116% and a viability, T/C [27] of 110%. It also gave a viability, T/C [28] of 108%, a viability, T/C [29] of 95.3% and a viability, T/C [30] of 96.1%. It also gave a viability, T/C [31] of 95.1%, a viability, T/C [32] of 119% and a viability, T/C [33] of 117%. For the same compound, the viability, T/C [34] was 114%, the viability, T/C [35] was 107% and the viability, T/C [36] was 96.6%.
